# From patent US7629169B2, “Methods for the production of platelet-derived growth factor-responsive neural precursor cells” (Stem Cell Therapeutics Corp., priority 2004, dated 2009)
# How the values were obtained:
# [1] = test system: PRPs (single primary neurospheres); assay: Self-renewal by single sphere dissociation (secondary neurospheres); type: cell-based; conditions: for secondary neurospheres per single primary PDGF-generated neurosphere: passaged into the named factor(s)
# Description: Self-renewal capacity was examined by single sphere dissociation. Briefly, single 6 DIV neurospheres of equivalent size that were generated in the presence of EGF, PDGF-AA, or PDGF-AA and SHH were transferred into 96 well plates and mechanically dissociated. Dissociates were cultured in MHM supplemented with EGF, FGF2 (includes 2 μg/ml HS), FGF2 and SHH, PDGF-AA, PDGF-AA and SHH, PDGF-AA and FGF2, PDGF-AA and FGF2 and SHH, PDGF-AA and DMSO (0.1%), PDGF-AA and SHH, or PDGF-AA and FGF2 and cyclopamine. The number of secondary neurospheres generated was counted after 9 DIV.
# PRPs = assay: GFP-expressing PDGF neurosphere dissociates plated on EGF-generated feeder layer; type: cell-based, mouse; conditions: PDGF with EGF feeder layer
# Source text: To determine if extrinsic factors could promote self-renewal of PRPs, individual, 7 DIV, GFP-expressing, PDGF-generated neurospheres were isolated, dissociated in the presence of PDGF-AA, and differentiated on coverslips that had been plated 2 days earlier with or without 0.2×10^6 cells/ml of EGF-generated cells from dissociated primary EGF neurospheres. EGF-generated feeder cells had been allowed to differentiate for 2 days in the presence of 1% FBS. Plates were rinsed 3× with MHM prior to the addition of GFP-expressing, PDGF-generated dissociates. Numbers of adherent clones and cells per clone were assessed by GFP expression. All images were captured with a Photometrics Coolsnap digital camera (Tuscon, Ariz.) mounted on a Leica Microsystems DMIL inverted fluorescence microscope with Coolsnap V1.2.0 software.
# However, these studies employed a defined culture media in which some factors required for self-renewal may be missing. To further study PRP self-renewal, primary PDGF neurospheres from the E14 MGEs of TgN(GFPU)5Nagy mice were grown for 7 DIV, individual neurospheres dissociated and transferred from single neurospheres onto poly-L-omithine coated coverslips that had been plated with or without 200,000 primary 7 DIV EGF-generated progeny 2 days earlier.
# dissociated E14 MGEs = assay: Clonality test: GFP and CD1 E14 MGE cells co-cultured 1:1 in PDGF-AA; type: cell-based, mouse; conditions: 100 ng/ml PDGF-AA, 20,000 cells/ml, GFP:CD1 1:1
# Source text: PDGF is also known to have chemotaxic effects on cortical NSCs (Forsberg-Nilsson et al., J Neurosci Res 53:521 (1998)), and thus it was possible that neurospheres generated under PDGF stimulation resulted from the directed migration of NSCs along the culture dish into clumps that resembled clonally-derived neurospheres. This possibility was studied, as previously described (Represa et al., Eur J Neurosci 14:452 (2001)), by culturing dissociated E14 MGEs from CD1 and TgN(GFPU)5Nagy (ubiquitous green fluorescent protein [GFP]-expressing) mice together, 1:1, at 20,000 cells/ml, and in the presence of 100 ng/ml of PDGF-AA. If cell clumping generates the majority of the neurospheres, then most neurospheres should contain both GFP- and non-GFP-expressing cells. However, 95±11% of the neurospheres were not chimeric for GFP expression (p<0.01; Tukey HSD; n=3) (FIGS. 1C-D), and there was no difference in the number of GFP- or non-GFP-expressing neurospheres produced (p>0.65; Tukey HSD; n=3) (FIG. 1D).
# [2] = test system: PDGF-responsive neural precursors (PRPs) from dissociated E14 MGE/LGE; assay: Primary neurosphere generation from dissociated E14 ganglionic eminences; type: cell-based, mouse
# Description: Cell culture. The culture medium (MHM) was composed of DMEM/F-12 (1:1) including HEPES buffer (5 mM), glucose (0.6%), sodium bicarbonate (3 mM), glutamine (2 mM), insulin (25 μg/ml), transferrin (100 μg/ml), progesterone (20 nM), putrescine (10 μM), and sodium selenite (30 nM; all from Sigma, St. Louis, Mo., except glutamine from Invitrogen, Carlsbad, Calif.). The lateral, medial, or both ganglionic eminences (LGE, MGE or both) were removed from Embryonic Day 14 (E14) mouse embryos and mechanically dissociated with a fire-polished Pasteur pipette in MHM. Cells were plated at a density of […] unless otherwise indicated.
# For neurosphere generation, PDGF-AA (100 ng/ml; Peprotech, Rocky Hill, N.J.), PDGF-BB (100 ng/ml; Peprotech), EGF (20 ng/ml; Peprotech), FGF2 (20 ng/ml; R&D [Minneapolis, Minn.])+heparan sulfate (2 μg/ml; HS; R&D), SHH (2 ug/ml; R&D), cyclopamine (5 μM; Toronto Research Chemicals, North York, Ontario), and/or DMSO (0.1%; carrier) was added to the MHM. MHM used to generate neurospheres also contained 2% B27 (Invitrogen).
# […] is one of the earliest markers of OLPs, and signaling by PDGF-AA is required for the generation of most oligodendrocytes (Fruttiger et al., Development 126:457 (1999)). Increasing concentrations of PDGF-AA were used to determine whether stimulation of dissociated E14 medial and lateral ganglionic eminences. (MGE and LGE, respectively) results in generation of neurospheres. The neurosphere assay was used because manipulation of primary cells is minimal compared to the immunopanning procedures used to isolate O-2A progenitors.
# The effect of brain-derived neurotrophic factor (BDNF), neurotrophin-3 (NT-3), and nerve growth factor (NGF) on PRPs was determined. Cells were cultured as previously reported (Chojnacki et al., J Neurosci 24(48):10888 2004) in the presence of various combinations of PDGF, brain-derived neurotrophic factor (BDNF), NT-3, nerve growth factor (NGF), and the effects on neurosphere generation characterized. MHM is the defined medium used in cultures without growth factor.
# [3] = test system: PDGF-generated neurospheres; assay: Differentiation of primary PDGF-AA-generated neurospheres, immunocytochemistry; type: cell-based, mouse
# NSC = assay: FGF2-induced NSC proliferation; type: cell-based; conditions: 1 μM SU5402
# [4] = 6 DIV neurospheres differentiated 3 DIV
compound,measurement,setting,value
"FGF2: fibroblast growth factor 2, 20 ng/ml, with heparan sulfate 2 μg/ml",secondary neurospheres per single primary PDGF-generated neurosphere,[1],3±1
same,secondary neurospheres / self-renewal compared with passage in PDGF,[1]; primary PDGF-generated neurospheres passaged into the named factor(s),No increase in self-renewal
"EGF: epidermal growth factor, 20 ng/ml; Peprotech (NSDSECPLSHDGYCLHDGVCMYIEALDKYACNCVVGYIGERCQYRDLKWWELR; Epidermal growth factor; UniProt P01133 971-1023, looked up)",secondary neurospheres per single primary PDGF-generated neurosphere,[1],3±1
"PDGF-AA: platelet-derived growth factor AA, 100 ng/ml; Peprotech",adherent GFP-labeled clones,PRPs,many clones of GFP-labeled cells that contained greater than 10 cells
same,secondary neurospheres per single primary EGF-generated neurosphere,[1]; passaged into PDGF-AA,26±5
same,secondary neurospheres per single primary PDGF-generated neurosphere,[1],1±1
same,neurospheres not chimeric for GFP expression,dissociated E14 MGEs,95±11%
same,neurospheres produced,"[2]; 100 ng/ml PDGF-AA, dissociated E14 MGE and LGE, n=3","12±1 neurospheres per 10,000 plated cells"
same,number of primary neurospheres generated,"[2]; dissociated MGEs, SHH 2 μg/ml, n=8",60±9
same,neurosphere production versus concentration,[2]; increasing concentrations of PDGF-AA,induced neurosphere production in a dose-dependent manner
"N[C@@H](Cc1cc(I)c(Oc2ccc(O)c(I)c2)c(I)c1)C(=O)O [T3, triiodothyronine]",increase in differentiation of oligodendrocytes (O4),"[3]; 20 ng/ml T3, 2 DIV, vs 1% FBS",5 fold
same,MBP-only clones,[3]; 2 DIV,increased the number of MBP-only clones
same,MBP-expressing cells produced per clone,"[3]; 2 DIV, vs 1% FBS, BMP-2, and T3 and BMP-2",significantly increased the number of MBP-expressing cells produced per clone
same,GFAP-immunoreactive astrocytes per neurosphere,[3]; [4],no astrocytes
same,MBP-immunoreactive oligodendrocytes per neurosphere,[3]; [4],3.9±0.4
"CC1=C2C[C@H]3[C@@H](CC=C4C[C@@H](O)CC[C@@]43C)[C@@H]2CC[C@]12O[C@@H]1C[C@H](C)CN[C@H]1[C@H]2C [cyclopamine, reference compound]",secondary neurospheres per primary PDGF-generated neurosphere,[1]; cyclopamine added to PDGF and FGF2,3±1
same,neurosphere size,[2]; 5 μM cyclopamine with 100 ng/ml PDGF-AA,smaller
same,reduction in number of PDGF-AA-generated neurospheres,"[2]; 5 μM cyclopamine with 100 ng/ml PDGF-AA, MGE 10,000 cells/ml, vs PDGF-AA+DMSO",5 fold
same,non-specific toxic effect,"[2]; 5 μM cyclopamine, phase-bright differentiating cells present",likely not a result of a non-specific toxic effect
"Cc1c[nH]c(/C=C2\C(=O)Nc3ccccc32)c1CCC(=O)O [SU5402, reference compound]",block of FGF2-induced NSC proliferation,NSC,90%
same,primary PDGF neurosphere formation,[2]; 1 μM SU5402,unaffected
